According to patent US20220324865A1 (Bayer Aktiengesellschaft, priority 2018, published 2022):

Biological target: T1, human EP3 receptor (Homo sapiens, UniProt P43115)
T1 construct: expressed in transfected cells; host or cells: CHO K1 (Chinese Hamster Ovary), stably co-transfected with Galpha16 and mitochondrial clytin
T1 sequence (P43115 1-390): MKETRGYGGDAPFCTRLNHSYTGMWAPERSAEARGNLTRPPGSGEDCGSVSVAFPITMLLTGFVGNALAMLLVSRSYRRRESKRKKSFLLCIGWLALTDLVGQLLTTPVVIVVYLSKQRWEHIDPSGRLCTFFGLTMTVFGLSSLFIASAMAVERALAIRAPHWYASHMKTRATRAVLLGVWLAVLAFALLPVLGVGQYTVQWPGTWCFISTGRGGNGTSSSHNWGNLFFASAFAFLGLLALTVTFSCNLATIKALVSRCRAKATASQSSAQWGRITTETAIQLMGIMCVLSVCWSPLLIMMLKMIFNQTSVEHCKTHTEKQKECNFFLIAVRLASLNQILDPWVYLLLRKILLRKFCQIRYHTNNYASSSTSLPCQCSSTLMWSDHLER
Assay: Cellular in vitro assay for determining EP3 receptor activity (human EP3 cell line, sulprostone-stimulated calcium luminescence)
Format: cell-based
Details: CHO cells expressing human EP3 and mitochondrial Clytin; antagonist mode, sulprostone at EC50; read-out: EP3 CHO mtCLY ANTAG IC50
Summary of the method: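 Antagonist activity was measured as inhibition of the luminescent calcium signal elicited by EC50 sulprostone, following 10 min compound pretreatment. The cell line was recombinant CHO K1 co-expressing human EP3, Gα16 and the photoprotein Clytin, reconstituted with coelenterazine.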

Compared with `COCc1c(C(=O)N[C@H](C)c2ccc(OC)nc2)nn2cc(-c3ccc4ccccc4c3)[nH]c(=O)c12` [Example 1-22, 3-(Methoxymethyl)-N-[(1R)-1-(6-methoxypyridin-3-yl)ethyl]-6-(naphthalen-2-yl)-4-oxo-4,5-dihydropyrazolo[1,5-a]pyrazine-2-carboxamide], `C[C@@H](NC(=O)c1nn2cc(-c3ccc4ccccc4c3)[nH]c(=O)c2c1C#N)c1ccc(F)cc1` [6-68] is 6.4-fold higher in IC50: 0.37 nM for the first, 2.35 nM for the second.

First: CC(NC(=O)c1cc2c(=O)[nH]c(-c3ccc4ccccc4c3)cn2n1)c1ccn(C)n1 (stereo not drawn) [Example 2-49, N-[1-(1-Methyl-1H-pyrazol-3-yl)ethyl]-6-(2-naphthyl)-4-oxo-4,5-dihydropyrazolo[1,5-a]pyrazine-2-carboxamide]
Second: C[C@@H](NC(=O)c1cc2c(=O)[nH]c(-c3ccc4ccccc4c3)cn2n1)c1cccc2ccccc12 [Example 2-27, 6-(2-Naphthyl)-N-[(7R)-1-(1-naphthyl)ethyl]-4-oxo-4,5-dihydropyrazolo[1,5-a]pyrazine-2-carboxamide]
The IC50 of the first is 2.6-fold higher: 8.6 nM for the first, 3.25 nM for the second. The second is the more potent here.

First: Cc1ccc(-c2cn3nc(C(=O)N[C@@H](C4CC4)C(C)(C)O)c(C4CC4)c3c(=O)[nH]2)cc1Cl [6-275]
Second: Cc1cc(-c2cn3nc(C(=O)N[C@H](C)C4CC4)c(C4CC4)c3c(=O)[nH]2)ccc1Cl [6-335]
The IC50 of the first is 1.6-fold higher: 2.85 nM for the first, 1.8 nM for the second. The second is the more potent here.

First: CCN(CCO)CC(NC(=O)c1cc2c(=O)[nH]c(-c3ccc(C)c(C)c3)cn2n1)c1ccccc1 (stereo not drawn) [Example 1-85, 6-(3,4-Dimethylphenyl)-N-[2-[ethyl(2-hydroxyethyl)amino]-1-phenylethyl]-4-oxo-5H-pyrazolo-[1,5-a]pyrazine-2-carboxamide]
Second: Cc1ccc(-c2cn3nc(C(=O)NC(c4ccccc4)C(O)C(F)(F)F)cc3c(=O)[nH]2)cc1C (stereo not drawn) [6-350]
The IC50 of the first is 3.8-fold higher: 3 nM for the first, 0.78 nM for the second. The second is the more potent here.

`Cc1cc(-c2cn3nc(C(=O)N[C@@H](C)C4CC4)c(C(F)(F)F)c3c(=O)[nH]2)ccc1Cl` [6-214] and `Cc1cc(-c2cn3nc(C(=O)N[C@H](C)C4CC4)c(C(C)C)c3c(=O)[nH]2)ccc1Cl` [6-609] are within 1.5-fold of each other in IC50: 1.35 nM for the first, 1.5 nM for the second.

First: Cc1ccc(-c2cn3nc(C(=O)N[C@H](CN4CC[C@@H](F)C4)c4ccccc4)cc3c(=O)[nH]2)cc1F [6-637]
Second: Cc1ccc(-c2cn3nc(C(=O)N[C@@H](c4ccc(F)cc4)C(F)(F)CO)cc3c(=O)[nH]2)cc1F [6-645]
The IC50 of the first is 1.7-fold lower: 3.6 nM for the first, 6 nM for the second.

`Cc1cc(-c2cn3nc(C(=O)N[C@H](CN4CC(F)C4)c4ccc(F)cc4)c(C(F)(F)F)c3c(=O)[nH]2)ccc1Cl` [6-231] and `Cc1cc(-c2cn3nc(C(=O)N[C@@H](c4ccc(F)cc4)C(F)(F)CO)c(C(F)(F)F)c3c(=O)[nH]2)ccc1F` [6-647] are within 1.5-fold of each other in IC50: 3.25 nM for the first, 3.03 nM for the second.

First: Cc1cccc2ncc(-c3cn4nc(C(=O)NCc5cccc(CN(C)C)c5)c(C(C)C)c4c(=O)[nH]3)cc12 [Example 4-2, N-({3-[(Dimethylamino)methyl]phenyl}methyl)-6-(5-methylquinolin-3-yl)-4-oxo-3-(propan-2-yl)-4,5-dihydropyrazolo[1,5-a]pyrazine-2-carboxamide]
Second: Cc1cccc2ncc(-c3cn4nc(C(=O)NCc5cccc(CN6CCCC6)c5)c(C(C)C)c4c(=O)[nH]3)cc12 [Example 4-81, 6-(5-Methylquinolin-3-yl)-4-oxo-3-(propan-2-yl)-N-({3-[(pyrrolidin-1-yl)methyl]phenyl}methyl)-4,5-dihydropyrazolo[1,5-a]pyrazine-2-carboxamide]
The IC50 of the first is 1.6-fold lower: 2.8 nM for the first, 4.45 nM for the second.

Going from `COc1ccc(C(CCO)NC(=O)c2cc3c(=O)[nH]c(-c4ccc5c(c4)OCCO5)cn3n2)cc1` (stereo not drawn) [Example 5-3, 6-(2,3-Dihydro-1,4-benzodioxin-6-yl)-N-[3-hydroxy-1-(4-methoxyphenyl)propyl]-4-oxo-5H-pyrazolo[1,5-a]pyrazine-2-carboxamide] to `COc1ccc(C(CCO)NC(=O)c2cc3c(=O)[nH]c(-c4ccc5ccccc5c4)cn3n2)cc1` (stereo not drawn) [Example 2-2, N-[3-Hydroxy-1-(4-methoxyphenyl)propyl]-6-(2-naphthyl)-4-oxo-4,5-dihydropyrazolo[1,5-a]pyrazine-2-carboxamide], the IC50 falls from 2.45 nM to 1.18 nM (2.1-fold). The second is the more potent here.

`Cc1ccc(-c2[nH]c(=O)c3c(C4CC4)c(C(=O)N[C@H](C)c4ccc(F)cc4)nn3c2F)cc1Cl` [6-663] and `Cc1ccc(-c2[nH]c(=O)c3c(C(F)(F)F)c(C(=O)N[C@H](C)c4ccc(F)cc4)nn3c2C)cc1C` [Example 1-123, 6-(3,4-Dimethylphenyl)-N-[(1R)-1-(4-fluorophenyl)ethyl]-7-methyl-4-oxo-3-(trifluoromethyl)-4,5-dihydropyrazolo[1,5-a]pyrazine-2-carboxamide] are within 1.5-fold of each other in IC50: 3.85 nM for the first, 3.2 nM for the second.

Going from `COc1cccc(CNC(=O)c2cc3c(=O)[nH]c(-c4ccc5ccccc5c4)cn3n2)c1` [Example 2-23, N-(3-Methoxybenzyl)-6-(2-naphthyl)-4-oxo-4,5-dihydropyrazolo[1,5-a]pyrazine-2-carboxamide] to `O=C(NC1(c2ccc(F)cc2)COC1)c1cc2c(=O)[nH]c(-c3ccc4ccccc4c3)cn2n1` [6-56], the IC50 falls from 1.14 nM to 0.74 nM (1.5-fold). The second is the more potent here.

Going from `Cc1ccc(-c2cn3nc(C(=O)N[C@H](C)C(C)C)c(C(F)(F)F)c3c(=O)[nH]2)cc1C` [6-114] to `Cc1ccc(-c2cn3nc(C(=O)N[C@@H](C)C(C)C)c(C(F)(F)F)c3c(=O)[nH]2)cc1Cl` [6-187], the IC50 falls from 3.15 nM to 1.45 nM (2.2-fold). The second is the more potent here.

First: Cc1cccc2ncc(-c3cn4nc(C(=O)NC5CCOc6ccccc65)c(C(C)C)c4c(=O)[nH]3)cc12 (stereo not drawn) [Example 4-65, N-(3,4-Dihydro-2H-chromen-4-yl)-3-isopropyl-6-(5-methylquinolin-3-yl)-4-oxo-4,5-dihydropyrazolo[1,5-a]pyrazine-2-carboxamide]
Second: Cc1ccnc(C(C)NC(=O)c2nn3cc(-c4cnc5cccc(C)c5c4)[nH]c(=O)c3c2C(C)C)n1 (stereo not drawn) [Example 4-47, 3-Isopropyl-N-[1-(4-methylpyrimidin-2-yl)ethyl]-6-(5-methyl-3-quinolyl)-4-oxo-5H-pyrazolo[1,5-a]pyrazine-2-carboxamide]
The IC50 of the first is 2.7-fold lower: 1.15 nM for the first, 3.1 nM for the second. The first is the more potent here.

`CC(C)(O)[C@@H](NC(=O)c1nn2cc(-c3ccc(Cl)c(F)c3)[nH]c(=O)c2c1C1CC(F)(F)C1)c1ccc(F)cc1` [6-555] and `CC(C)(O)[C@@H](NC(=O)c1nn2cc(-c3ccc(Cl)c(F)c3)[nH]c(=O)c2c1C1CC1(F)F)c1ccc(F)cc1` (stereo partly drawn) [6-564] are within 1.5-fold of each other in IC50: 3.35 nM for the first, 4.05 nM for the second.

Going from `Cc1cc(C)nc(CNC(=O)c2nn3cc(-c4cnc5cccc(C)c5c4)[nH]c(=O)c3c2C(C)C)n1` [Example 4-60, N-[(4,6-Dimethylpyrimidin-2-yl)methyl]-6-(5-methylquinolin-3-yl)-4-oxo-3-(propan-2-yl)-4,5-dihydropyrazolo[1,5-a]pyrazine-2-carboxamide] to `CC[C@@H](C)NC(=O)c1nn2cc(-c3ccc4ccccc4c3)[nH]c(=O)c2c1C(F)(F)F` [6-511], the IC50 falls from 2.1 nM to 0.59 nM (3.6-fold).

First: Cc1cc(-c2cn3nc(C(=O)NC(C)C4CCC4)c(C4CC4)c3c(=O)[nH]2)ccc1Cl (racemic) [6-298]
Second: C[C@H](NC(=O)c1nn2cc(-c3ccc(Cl)c(Cl)c3)[nH]c(=O)c2c1C1CCC1)C1CC1 [6-569]
The IC50 of the first is 2-fold higher: 2.85 nM for the first, 1.45 nM for the second.

`N#Cc1c(C(=O)N[C@H](CCO)c2ccc(F)cc2)nn2cc(-c3ccc4ccccc4c3)[nH]c(=O)c12` [Example 1-71, 3-Cyano-N-[(1R)-1-(4-fluorophenyl)-3-hydroxypropyl]-6-(naphthalen-2-yl)-4-oxo-4,5-dihydropyrazolo[1,5-a]pyrazine-2-carboxamide] and `CC(NC(=O)c1nn2cc(-c3ccc4ccccc4c3)[nH]c(=O)c2c1C#N)c1ccccc1OC(F)F` (stereo not drawn) [Example 3-60, 3-Cyano-N-[1-[2-(difluoromethoxy)phenyl]ethyl]-6-(2-naphthyl)-4-oxo-5H-pyrazolo[1,5-a]pyrazine-2-carboxamide] are within 1.5-fold of each other in IC50: 1.45 nM for the first, 1.85 nM for the second.

Going from `O=C(NC1CCN(C2CC2)C1)c1nn2cc(-c3ccc4ccccc4c3)[nH]c(=O)c2c1C(F)(F)F` (single isomer, unassigned) [6-501] to `Cc1ccc(-c2cn3nc(C(=O)N[C@@H](C)C4CC4)c(C4CC4(F)F)c3c(=O)[nH]2)cc1Cl` (stereo partly drawn) [6-561], the IC50 falls from 5.7 nM to 1.1 nM (5.2-fold). The second is the more potent here.

Going from `COc1ccc([C@@H](C)NC(=O)c2cc3c(=O)[nH]c(-c4ccc5c(c4)COCC5)cn3n2)cn1` [Example 1-51, 6-(3,4-Dihydro-1H-isochromen-7-yl)-N-[(1R)-1-(6-methoxypyridin-3-yl)ethyl]-4-oxo-4,5-dihydropyrazolo[1,5-a]pyrazine-2-carboxamide] to `COc1ccc(CCNC(=O)c2cc3c(=O)[nH]c(-c4ccc5c(c4)OCCO5)cn3n2)cc1OC` [6-77], the IC50 falls from 4 nM to 2.28 nM (1.8-fold). The second is the more potent here.

First: Cc1ccc(-c2cn3nc(C(=O)NCC(N)C(F)(F)F)c(C4CC4)c3c(=O)[nH]2)cc1C (single isomer, unassigned) [6-433]
Second: Cc1ccc(-c2cn3nc(C(=O)NC(CO)C(F)(F)F)c(C4CC4)c3c(=O)[nH]2)cc1C(F)(F)F (single isomer, unassigned) [6-249]
The IC50 of the first is 3.9-fold lower: 0.76 nM for the first, 3 nM for the second.

First: CN1CC(NC(=O)c2nn3cc(-c4ccc(Cl)c(C(F)F)c4)[nH]c(=O)c3c2C2CC2)(c2ccc(F)cc2)C1 [6-665]
Second: COc1cccc(C(CCO)NC(=O)c2nn3c(C)c(-c4ccc5ccccc5c4)[nH]c(=O)c3c2C)c1 (stereo not drawn) [Example 3-39, N-[3-Hydroxy-1-(3-methoxyphenyl)propyl]-3,7-dimethyl-6-(2-naphthyl)-4-oxo-5H-pyrazolo[1,5-a]pyrazine-2-carboxamide]
The IC50 of the first is 1.7-fold higher: 3.1 nM for the first, 1.8 nM for the second. The second is the more potent here.
